According to ChEMBL document CHEMBL1150098, “Makaluvamines H-M and damirone C from the pohnpeian sponge Zyzzya fuliginosa” (J Nat Prod, 1995):
Active and inactive are the calls of the source. The calls are words filed in the database; no cut-off is given here.

Assays:
[1] = system: HCT-116; assay: Cytotoxicity against human HCT116 cells; type: functional, cell-based
[2] = target: DNA topoisomerase 2-alpha (Homo sapiens) (UniProt P11388); assay: Inhibition of DNA topoisomerase 2
Sequence of DNA topoisomerase 2-alpha (Homo sapiens) (P11388 whole entry): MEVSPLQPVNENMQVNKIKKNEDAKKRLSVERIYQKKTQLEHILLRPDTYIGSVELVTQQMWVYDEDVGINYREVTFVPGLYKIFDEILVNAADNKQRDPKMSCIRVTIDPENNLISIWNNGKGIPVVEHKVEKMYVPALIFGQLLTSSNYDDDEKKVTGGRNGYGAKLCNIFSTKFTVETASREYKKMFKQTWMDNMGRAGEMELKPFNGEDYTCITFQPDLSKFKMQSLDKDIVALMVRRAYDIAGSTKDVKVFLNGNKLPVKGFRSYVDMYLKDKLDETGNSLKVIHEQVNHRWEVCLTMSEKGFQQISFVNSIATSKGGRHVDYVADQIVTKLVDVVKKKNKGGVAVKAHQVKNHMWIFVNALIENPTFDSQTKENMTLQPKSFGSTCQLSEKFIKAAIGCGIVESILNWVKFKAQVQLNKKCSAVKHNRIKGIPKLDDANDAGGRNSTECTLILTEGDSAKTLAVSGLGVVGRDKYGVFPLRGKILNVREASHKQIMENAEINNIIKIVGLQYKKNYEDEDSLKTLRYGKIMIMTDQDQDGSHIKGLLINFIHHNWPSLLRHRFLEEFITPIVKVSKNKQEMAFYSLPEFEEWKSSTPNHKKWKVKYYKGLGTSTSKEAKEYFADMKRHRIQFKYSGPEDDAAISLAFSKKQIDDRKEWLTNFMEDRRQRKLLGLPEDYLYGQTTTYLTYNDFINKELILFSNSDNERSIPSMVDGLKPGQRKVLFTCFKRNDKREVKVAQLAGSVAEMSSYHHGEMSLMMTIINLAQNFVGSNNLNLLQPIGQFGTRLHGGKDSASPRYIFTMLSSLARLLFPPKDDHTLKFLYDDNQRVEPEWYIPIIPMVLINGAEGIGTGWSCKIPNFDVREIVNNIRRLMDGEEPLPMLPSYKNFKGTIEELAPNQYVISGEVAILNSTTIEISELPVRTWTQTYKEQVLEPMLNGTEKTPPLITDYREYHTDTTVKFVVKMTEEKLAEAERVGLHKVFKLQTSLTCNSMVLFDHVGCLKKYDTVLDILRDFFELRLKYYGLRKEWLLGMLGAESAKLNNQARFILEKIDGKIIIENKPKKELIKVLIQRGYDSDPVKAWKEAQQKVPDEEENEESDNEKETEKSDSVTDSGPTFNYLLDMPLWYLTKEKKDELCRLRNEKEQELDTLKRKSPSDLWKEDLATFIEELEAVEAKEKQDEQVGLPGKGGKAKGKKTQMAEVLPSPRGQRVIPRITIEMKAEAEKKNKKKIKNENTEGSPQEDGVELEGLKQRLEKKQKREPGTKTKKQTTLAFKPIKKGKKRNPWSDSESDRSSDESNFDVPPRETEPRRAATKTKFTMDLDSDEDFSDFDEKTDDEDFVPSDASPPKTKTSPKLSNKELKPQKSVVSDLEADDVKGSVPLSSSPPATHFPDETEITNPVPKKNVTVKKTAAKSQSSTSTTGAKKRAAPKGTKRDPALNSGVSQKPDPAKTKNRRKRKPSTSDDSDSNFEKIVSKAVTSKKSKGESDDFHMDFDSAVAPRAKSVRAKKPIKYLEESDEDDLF

NC1=CC2=NCCc3c[nH]c(c32)C1=O
Activity [1]: Active

C[N+]1=C2C=C(NCCc3ccc(O)cc3)C(=O)c3[nH]cc(c32)CC1
Activity [1]: Active | Activity [2]: inactive

Cn1cc2c3c1C(=O)C(N)=CC3=NCC2
Activity [1]: Active | Activity [2]: Active

Cn1cc2c3c1C(=O)C(N/C=C/c1ccc(O)cc1)=CC3=NCC2
Activity [1]: Active | Activity [2]: Active

Cn1cc2c3c1C(=O)C(NCCc1ccc(O)cc1)=CC3=NCC2
Activity [1]: Active | Activity [2]: inactive

O=C1C(NCCc2ccc(O)cc2)=CC2=NCCc3c[nH]c1c32
Activity [1]: Active | Activity [2]: inactive

Cn1cc2c3c1C(=O)C(N)=CC3=[N+](C)CC2
Activity [1]: Active | Activity [2]: inactive

O=C1C(N/C=C/c2ccc(O)cc2)=CC2=NCCc3c[nH]c1c32
Activity [1]: Active | Activity [2]: inactive

C[N+]1=C2C=C(N)C(=O)c3[nH]cc(c32)CC1
Activity [1]: Active | Activity [2]: Active

C[N+]1=C2C=C(N/C=C/c3ccc(O)cc3)C(=O)c3[nH]cc(c32)CC1
Activity [1]: Active | Activity [2]: inactive

O=C1C(NC2Cc3cc(Br)c(O)cc3S2)=CC2=NCCc3c[nH]c1c32 (stereo not drawn)
Activity [1]: Active | Activity [2]: Active

Cn1cc2c3c1C(=O)C(N/C=C/c1ccc(O)cc1)=CC3=[N+](C)CC2
Activity [1]: Active | Activity [2]: inactive
